What was measured:
MOLM13 = test: Cell viability assay; type: cell-based; settings: Homo sapiens, MOLM-13, 24 h; MOLM13 (AML); read-out: AZD5991 24h GI50
Experimental: (§1) Cells were plated at 3000 cells/well in 384-well white plates in corresponding cell growth media. […] Caspase-3/7 activation was subsequently determined using a Caspase-Glo 3/7 Reagent (Promega) and viability was assayed using the CellTiter-Glo Reagent (Promega) as described in manufacturer’s instructions. Dose–response curves for caspase-3/7 activation and viability were plotted and analyzed (including EC50 and GI50 determination) using GraphPad Prism.

MONOMAC6 = test: Cell viability assay; type: cell-based; settings: Homo sapiens, MONO-MAC-6, 24 h; MONOMAC6 (AML); read-out: AZD5991 24h GI50
Experimental: as §1

Colo205 = test: Cell viability assay; type: cell-based; settings: Homo sapiens, COLO 205, 24 h; Colo205 (GI); read-out: AZD5991 24h GI50
Experimental: as §1

BT549 = test: Cell viability assay; type: cell-based; settings: Homo sapiens, BT-549, 24 h; BT549 (Breast); read-out: AZD5991 24h GI50
Experimental: as §1

DLD1 = test: Cell viability assay; type: cell-based; settings: Homo sapiens, DLD-1, 24 h; DLD1 (GI); read-out: AZD5991 24h GI50
Experimental: as §1

KMS34 = test: Cell viability assay; type: cell-based; settings: KMS-34, 24 h; KMS34 (MM); read-out: AZD5991 24h GI50
Experimental: as §1

RT4 = test: Cell viability assay; type: cell-based; settings: Homo sapiens, RT-4, 24 h; RT4 (Urology); read-out: AZD5991 24h GI50
Experimental: as §1

DOHH2 = test: Cell viability assay; type: cell-based; settings: Homo sapiens, DOHH-2, 24 h; DOHH2 (NHL); read-out: AZD5991 24h GI50
Experimental: as §1

[1] = system: murine Eµ-Myc lymphoma tumors; test: GFP-labeled Eµ-Myc lymphoma model; type: in vivo, mice; settings: 100 mg kg^−1 on day 3 and day 10 post-transplantation
Text: Eµ-Myc: These studies complied with all ethical regulations in accordance with the guidelines established by the Institutional Animal Experimentation Ethics Committee, Peter MacCallum Cancer Center. Non-irradiated C57BL/6 mice between 6 and 8 weeks old were transplanted by tail vein injection with 100,000 GFP-labeled Eμ-Myc lymphoma cells[39] harvested from lymph nodes of a syngeneic mouse. Treatment started 3 days after implantation. AZD5991 and vehicle were formulated and administered as mentioned above. Peripheral blood was collected by retro-orbital sampling 11 days post-transplantation and GFP-expressing leukemic cells assessed by flow cytometry using a BD FACSCanto II cytometer and data analyzed using Flowlogic software. Gating strategy is shown in Supplementary Figure 8.

Kasumi1 = test: Cell viability assay; type: cell-based; settings: Homo sapiens, Kasumi 1, 24 h; Kasumi1 (AML); read-out: AZD5991 24h GI50
Experimental: as §1

TMD8 = test: Cell viability assay; type: cell-based; settings: Homo sapiens, 24 h; TMD8 (NHL); read-out: AZD5991 24h GI50
Experimental: as §1

MOLP-8 cells = test: Kinetics of apoptosis and cell death markers; type: cell-based
Experimental: Data presented in Fig. 4b was calculated as follows:4 TMRE:(TMREnegativesample-TMREnegativeDMSO)∕(TMREnegative500nMAZD5991@24h-TMREnegativeDMSO)×100 5 Annexin V : (Annexin V positive sample) - Annexin positive DMSO∕(Annexin positive 500nM AZD5991@24h) - Annexin positive DMSO × 100 6 7AAD : (7AAD positive sample) - 7AAD positive 500nM AZD5991@0.5h∕(7AAD positive 500nM AZD5991@16h) - 7AAD positive 500nM AZD5991@0.5h × 100

HCC1954 = test: Cell viability assay; type: cell-based; settings: Homo sapiens, 24 h; HCC1954 (Breast); read-out: AZD5991 24h GI50
Experimental: as §1

Sudhl6 = test: Cell viability assay; type: cell-based; settings: Homo sapiens, SU-DHL-6, 24 h; Sudhl6 (NHL); read-out: AZD5991 24h GI50
Experimental: as §1

MOLP-8 tumors = test: MOLP-8 subcutaneous xenograft efficacy; type: in vivo
Experimental: Female C.B.-17 SCID mice and female nude rats were purchased from Charles River Laboratories. […]. All xenograft studies were conducted at our Association for the Assessment and Accreditation of Laboratory Animal Care accredited facility in Waltham, MA in accordance with ethical regulations described in the guidelines established by the internal Institutional Animal Care and Use Committee. […]. In mice, drugs were dosed intravenously in a volume of 5 mL kg^-1 except for venetoclax that was dosed orally in a volume of 10 mL kg^-1. […]. Ten million MV4-11 cells were injected subcutaneously in the right flank of rats in a volume of 0.1 mL. Tumor volumes (measured by caliper), animal body weight, and tumor condition were recorded twice weekly for the duration of the study. The tumor volume was calculated using the formula: length (mm) × width (mm)^2[…]. For efficacy studies, growth inhibition from the start of treatment was assessed by comparison of the differences in tumor volume between control and treated groups. Statistical significance was evaluated using non-parametric, unpaired, two-tailed t-test. For efficacy studies, animals were randomized based on tumor volumes using stratified sampling, and enrolled into control and treatment groups. Dosing began when mean tumor size reached ~230 mm^3 in mice and 900 mm^3 in rats. Mice were euthanized once tumor size reached 2000 mm^3. Mice were excluded from the study upon body weight loss > 10% of the body weight at the initiation of the study. For pharmacokinetic analysis, plasma samples were precipitated and diluted with acetonitrile containing internal standard and analyzed by LC–MS/MS versus a calibration curve of known concentrations.

KMS26 = test: Cell viability assay; type: cell-based; settings: KMS-26, 24 h; KMS26 (MM); read-out: AZD5991 24h GI50
Experimental: as §1

[2] = Plasma protein binding in fetal calf serum; type: in vitro ADME; settings: bovine, read-out: plasma protein binding, free
MM1S = test: Cell viability assay; type: cell-based; settings: Homo sapiens, MM1.S, 24 h; MM1S (MM); read-out: AZD5991 24h GI50
Experimental: as §1

EOL1 = test: Cell viability assay; type: cell-based; settings: Homo sapiens, 24 h; EOL1 (AML); read-out: AZD5991 24h GI50
Experimental: as §1

[3] = single i.v. dose 60 mg kg^−1, ten days after treatment

## Cc1c2c(nn1C)CSCc1cc(n(C)n1)CSc1cc(c3ccccc3c1)OCCCc1c(C(=O)O)n(C)c3c-2c(Cl)ccc13 (atropisomer, axis not shown; (Ra)) [(Ra)-7]
MOLM13
  GI50: 42 nM
MONOMAC6
  GI50: 226 nM
Colo205
  GI50: 20500 nM
BT549
  GI50: 250 nM
DLD1
  GI50: 15100 nM
KMS34
  GI50: 503 nM
RT4
  GI50: 2400 nM
DOHH2
  GI50: 65 nM
[1]
  survival vs. vehicle control group: prolonged survival
[1]; day 11
  leukemic cells in peripheral blood: depletion of leukemic cells from peripheral blood
Kasumi1
  GI50: 133 nM
TMD8
  GI50: 535 nM
MOLP-8 cells
  time to loss of ATP and disruption of the cell membrane: less than 24 h
MOLP-8 cells; MOLP-8 cells, 500 nM
  time to maximum increase in MOMP, caspase-3/7 activation and phosphatidyl-serine exposure: less than 2 h
HCC1954
  GI50: 756 nM
Sudhl6
  GI50: 15 nM
MOLP-8 tumors; all dose levels, 10–100 mg kg^−1 single i.v. dose
  tolerability, body weight: no significant body weight loss
MOLP-8 tumors; single dose 36 days after the first dose, 100 mg kg^−1 i.v., regrown tumors
  mice with tumor regression after second dose: 4 out of 4
MOLP-8 tumors; single i.v. dose 10 mg kg^−1, ten days after treatment
  tumor growth inhibition (TGI): 52%
MOLP-8 tumors; single i.v. dose 30 mg kg^−1, ten days after treatment
  tumor growth inhibition (TGI): 93%
MOLP-8 tumors; [3]
  mice with no detectable tumors: 6 out of 7
  tumor regression (TR): 99%
MOLP-8 tumors; single i.v. dose 100 mg kg^−1, ten days after treatment
  mice with complete TR: 7 out of 7
KMS26
  GI50: 141 nM
[2]
  fraction unbound: 0.001
MM1S
  GI50: 348 nM
EOL1
  GI50: 12 nM

From PMC6297231 (Nature Communications, 2018)
